Drawing on ChEMBL document CHEMBL1149067, “Ochrindoles A-D: new bis-indolyl benzenoids from the sclerotia of Aspergillus ochraceus NRRL 3519” (J Nat Prod, 1994), this text covers zone of inhibition and Activity for four compounds.

Structures are written as SMILES.

In one data set the test system is Bacillus subtilis. Kind of data set: Antimicrobial activity against Bacillus subtilis at 100 ug/disk by standard disk assay. The data set is classed as functional. Particulars: read-out: IZ.
In another data set the test system is Helicoverpa zea. The data set can be described thus: Toxicity against Helicoverpa zea larvae assessed as weight gain relative to control. The data set is classed as organism-based. Particulars: in vivo.
The test system of another data set is Carpophilus. Kind of data set: Toxicity against Carpophilus hemipterus assessed as feeding reduction at 200 ppm relative to control. The data set is classed as organism-based. Further details: scale not given: the % may be the effect or the level left. The conditions noted are these: in vivo.

Regarding `COc1c(CC=C(C)C)c(-c2c[nH]c3ccccc23)c(OC)c(O)c1-c1c[nH]c2ccccc12` [OCHRINDOLE A], the zone of inhibition at 100 µg/disc with Bacillus subtilis was 15 mm. For the same compound, the Activity is on record as 30% in the data set with Helicoverpa zea and 20% with Carpophilus.

For `COc1c(C/C=C(\C)CO)c(-c2c[nH]c3ccccc23)c(OC)c(O)c1-c1c[nH]c2ccccc12` [OCHRINDOLE B], in the data set with Bacillus subtilis, the zone of inhibition at 100 µg/disc was 15 mm.

Take `COc1c(CC=C(C)C)c(-c2c[nH]c3ccccc23)c(O)c(O)c1-c1c[nH]c2ccccc12` [OCHRINDOLE C]: in the data set with Bacillus subtilis, the zone of inhibition at 100 µg/disc came to 15 mm.

As to `CC(C)=CCC1=C(c2c[nH]c3ccccc23)C(=O)C(O)=C(c2c[nH]c3ccccc23)C1=O` [OCHRINDOLE D], the zone of inhibition at 100 µg/disc in the data set with Bacillus subtilis came out at 15 mm.
